Reference: ChEMBL document CHEMBL3046940, “Microwave-assisted synthesis of novel 4H-chromene derivatives bearing 2-aryloxyquinoline and their antimicrobial activity assessment” (2013)
Values after ≈ are worked out from the molar mass of the structure shown.

Legend:
Type in all cases: functional
Vibrio cholerae = test: Antimicrobial activity against Vibrio cholerae MTCC 3906 assessed as growth inhibition after 24-48 hr by NCCLS broth microdilution method
Salmonella typhi = test: Antimicrobial activity against Salmonella enterica subsp. enterica serovar Typhi MTCC 98 assessed as growth inhibition after 24-48 hr by NCCLS broth microdilution method
Escherichia coli = test: Antimicrobial activity against Escherichia coli MTCC 443 assessed as growth inhibition after 24-48 hr by NCCLS broth microdilution method
Streptococcus pneumoniae = test: Antimicrobial activity against Streptococcus pneumoniae MTCC 1936 assessed as growth inhibition after 24-48 hr by NCCLS broth microdilution method
Clostridium tetani = test: Antimicrobial activity against Clostridium tetani MTCC 449 assessed as growth inhibition after 24-48 hr by NCCLS broth microdilution method
Bacillus subtilis = test: Antimicrobial activity against Bacillus subtilis MTCC 441 assessed as growth inhibition after 24-48 hr by NCCLS broth microdilution method
Candida albicans = test: Antimicrobial activity against Candida albicans MTCC 227 assessed as growth inhibition after 24-48 hr by NCCLS broth microdilution method
Aspergillus fumigatus = test: Antimicrobial activity against Aspergillus fumigatus MTCC 3008 assessed as growth inhibition after 24-48 hr by NCCLS broth microdilution method

Molecule	MIC (Vibrio cholerae)	MIC (Salmonella typhi)	MIC (Escherichia coli)	MIC (Streptococcus pneumoniae)	MIC (Clostridium tetani)	MIC (Bacillus subtilis)	MIC (Candida albicans)	MIC (Aspergillus fumigatus)
COc1ccc2nc(Oc3ccc(F)cc3)c(C3C(C#N)=C(N)OC4=C3C(=O)CC(C)(C)C4)cc2c1 (stereo not given)	250 µg/mL (≈ 515 µM)	100 µg/mL (≈ 206 µM)	62.5 µg/mL (≈ 129 µM)	150 µg/mL (≈ 309 µM)	200 µg/mL (≈ 412 µM)	200 µg/mL (≈ 412 µM)	500 µg/mL (≈ 1030 µM)	500 µg/mL (≈ 1030 µM)
N#CC1=C(N)OC2=C(C(=O)CCC2)C1c1cc2ccccc2nc1Oc1ccc(F)cc1 (stereo not given)	500 µg/mL (≈ 1170 µM)	200 µg/mL (≈ 468 µM)	100 µg/mL (≈ 234 µM)	250 µg/mL (≈ 585 µM)	500 µg/mL (≈ 1170 µM)	250 µg/mL (≈ 585 µM)	250 µg/mL (≈ 585 µM)	> 1000 µg/mL
CCn1cc(C(=O)O)c(=O)c2cc(F)c(N3CCNCC3)cc21 [NORFLOXACIN]	10 µg/mL (≈ 31.3 µM)	10 µg/mL (≈ 31.3 µM)	10 µg/mL (≈ 31.3 µM)	10 µg/mL (≈ 31.3 µM)	50 µg/mL (≈ 157 µM)	100 µg/mL (≈ 313 µM)		
Cc1ccc(Oc2nc3ccccc3cc2C2C(C#N)=C(N)OC3=C2C(=O)CCC3)cc1 (stereo not given)	200 µg/mL (≈ 472 µM)	500 µg/mL (≈ 1180 µM)	250 µg/mL (≈ 590 µM)	500 µg/mL (≈ 1180 µM)	500 µg/mL (≈ 1180 µM)	1000 µg/mL (≈ 2360 µM)	500 µg/mL (≈ 1180 µM)	500 µg/mL (≈ 1180 µM)
COc1ccc(Oc2nc3ccccc3cc2C2C(C#N)=C(N)OC3=C2C(=O)CCC3)cc1 (stereo not given)	100 µg/mL (≈ 228 µM)	250 µg/mL (≈ 569 µM)	150 µg/mL (≈ 341 µM)	100 µg/mL (≈ 228 µM)	1000 µg/mL (≈ 2280 µM)	200 µg/mL (≈ 455 µM)	1000 µg/mL (≈ 2280 µM)	> 1000 µg/mL
COc1ccc2nc(Oc3ccccc3)c(C3C(C#N)=C(N)OC4=C3C(=O)CC(C)(C)C4)cc2c1 (stereo not given)	200 µg/mL (≈ 428 µM)	500 µg/mL (≈ 1070 µM)	200 µg/mL (≈ 428 µM)	500 µg/mL (≈ 1070 µM)	100 µg/mL (≈ 214 µM)	500 µg/mL (≈ 1070 µM)	500 µg/mL (≈ 1070 µM)	1000 µg/mL (≈ 2140 µM)
COC1=CC(=O)C[C@@H](C)[C@]12Oc1c(Cl)c(OC)cc(OC)c1C2=O [GRISEOFULVIN]							500 µg/mL (≈ 1420 µM)	100 µg/mL (≈ 283 µM)
COc1ccc(Oc2nc3ccc(OC)cc3cc2C2C(C#N)=C(N)OC3=C2C(=O)CC(C)(C)C3)cc1 (stereo not given)	250 µg/mL (≈ 502 µM)	250 µg/mL (≈ 502 µM)	250 µg/mL (≈ 502 µM)	1000 µg/mL (≈ 2010 µM)	250 µg/mL (≈ 502 µM)	1000 µg/mL (≈ 2010 µM)	250 µg/mL (≈ 502 µM)	500 µg/mL (≈ 1000 µM)
O=C(N[C@H](CO)[C@H](O)c1ccc([N+](=O)[O-])cc1)C(Cl)Cl [CHLORAMPHENICOL]	50 µg/mL (≈ 155 µM)	50 µg/mL (≈ 155 µM)	50 µg/mL (≈ 155 µM)	50 µg/mL (≈ 155 µM)	50 µg/mL (≈ 155 µM)	50 µg/mL (≈ 155 µM)		
COc1ccc2nc(Oc3ccc(C)cc3)c(C3C(C#N)=C(N)OC4=C3C(=O)CC(C)(C)C4)cc2c1 (stereo not given)	200 µg/mL (≈ 415 µM)	100 µg/mL (≈ 208 µM)	100 µg/mL (≈ 208 µM)	500 µg/mL (≈ 1040 µM)	100 µg/mL (≈ 208 µM)	500 µg/mL (≈ 1040 µM)	1000 µg/mL (≈ 2080 µM)	500 µg/mL (≈ 1040 µM)
NYSTATIN							100 µg/mL	100 µg/mL
N#CC1=C(N)OC2=C(C(=O)CCC2)C1c1cc2ccccc2nc1Oc1ccccc1 (stereo not given)	250 µg/mL (≈ 611 µM)	250 µg/mL (≈ 611 µM)	100 µg/mL (≈ 244 µM)	250 µg/mL (≈ 611 µM)	250 µg/mL (≈ 611 µM)	250 µg/mL (≈ 611 µM)	500 µg/mL (≈ 1220 µM)	1000 µg/mL (≈ 2440 µM)
O=C(O)c1cn(C2CC2)c2cc(N3CCNCC3)c(F)cc2c1=O [CIPROFLOXACIN]	25 µg/mL (≈ 75.4 µM)	25 µg/mL (≈ 75.4 µM)	25 µg/mL (≈ 75.4 µM)	50 µg/mL (≈ 151 µM)				
CC1(C)S[C@@H]2[C@H](NC(=O)[C@H](N)c3ccccc3)C(=O)N2[C@H]1C(=O)O [AMPICILLIN]	100 µg/mL (≈ 286 µM)	100 µg/mL (≈ 286 µM)	100 µg/mL (≈ 286 µM)	100 µg/mL (≈ 286 µM)	250 µg/mL (≈ 715 µM)	250 µg/mL (≈ 715 µM)		
